Results reported in US20230150951A1, “2,5- OR 2,6-DISUBSTITUTED HYDROQUINONE DERIVATIVES WITH AT LEAST ONE CARBOXY, SULFO OR AMIDO GROUP USEFUL AS MEDICAMENTS” (OM PHARMA SA, priority 2020, published 2023).

What was measured:
[1] = test system: STZ-induced diabetes model; assay: STZ-induced diabetic nephropathy, kidney disease and retinopathy model (28 days treatment)
Protocol: A total of 70 female CD-1 mice aged 5-7 weeks weighing approximately 25-30 g were used for the study. These were purchased from Charles River, UK and had 7 days acclimatization period. Animals were housed in IVC cages (up to 5 per cage) with individual mice identified by tail mark. All animals were allowed free access to a standard certified commercial diet and sanitised water during the study. The holding room was maintained under standard conditions: 18-24° C., 55-70% humidity and a 12 h light/dark cycle.
Mice were starved for 6 hours prior to injection. One week after completion of induction glucose levels were monitored and mice with levels less than 15 mml/L (280 mg/gL) were removed from the study as they had not developed the ideal severity of diabetes. Glucose levels were be monitored weekly and 5 weeks after STZ induction biochemical assessment of renal injury was carried out by measuring urine albumin and creatinine levels and confirming they were within the desired range. After successful completion of this stage animals were assigned to treatment groups.
Treatment continued for 4 weeks (28 days) with weekly measurement of blood glucose and urine albumin/creatinine. The study schedule is detailed below looking at weekly (week 5 to 9) blood glucose levels, urine albumin creatinie ratios, and terminal (week 9) blood chemistry and cytokines, kidney histology and eye-retinal leakage.
Urine Albumin: Creatinine (ALB: CRE): Urine was collected weekly and pooled for each treatment group.
ELISAs: At the end of the treatment period blood was collected and processed to serum. Serum levels of CRP, TGF-β, IL-6 and TNF-α were quantified using commercially available ELISA kits, results are shown in Table 56.

VEGFR-2 = target: T1, VEGFR-2 (Homo sapiens, UniProt P35968); assay: VEGF-165 induced phosphorylation of VEGF-Receptor on HUVEC; assay type: cell-based; details: HUVEC preincubated 60 min, VEGF165 25 ng/mL 2 min; read-out: VEGFR-Phosphorylation inhibition IC50
T1 construct: endogenous in cells; host or cells: primary HUVEC

VEGF-A = target: T2, VEGF-A (Homo sapiens, UniProt P15692); assay: VEGF-A induced sprouting of HUVEC, spheroid-based cellular angiogenesis assay; assay type: cell-based; details: VEGF-A 25 ng/mL preincubated with compound, 24 h, read-out: VEGF-A1 IC50
T2 construct: purchased ProQinase GmbH
T2 sequence (P15692 27-191 isoform P15692-4): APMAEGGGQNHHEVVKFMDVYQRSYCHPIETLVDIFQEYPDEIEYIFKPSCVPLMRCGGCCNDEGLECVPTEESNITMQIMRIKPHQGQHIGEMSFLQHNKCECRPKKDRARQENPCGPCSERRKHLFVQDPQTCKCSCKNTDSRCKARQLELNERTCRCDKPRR
Method in brief: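 Compound (final 100 down to 1.56×10^−6 M) was mixed with growth factor (final 25 ng/mL) for 30 min at 37°C, then added onto collagen-embedded 400-cell HUVEC spheroids.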

[2] = day 28 of treatment (week 9), 15 mg/kg IV, Captopril 50 mg/kg PO
[3] = day 28 of treatment (week 9), serum, 15 mg/kg IV, Captopril 50 mg/kg PO

T1 sequence (P35968 20-1356): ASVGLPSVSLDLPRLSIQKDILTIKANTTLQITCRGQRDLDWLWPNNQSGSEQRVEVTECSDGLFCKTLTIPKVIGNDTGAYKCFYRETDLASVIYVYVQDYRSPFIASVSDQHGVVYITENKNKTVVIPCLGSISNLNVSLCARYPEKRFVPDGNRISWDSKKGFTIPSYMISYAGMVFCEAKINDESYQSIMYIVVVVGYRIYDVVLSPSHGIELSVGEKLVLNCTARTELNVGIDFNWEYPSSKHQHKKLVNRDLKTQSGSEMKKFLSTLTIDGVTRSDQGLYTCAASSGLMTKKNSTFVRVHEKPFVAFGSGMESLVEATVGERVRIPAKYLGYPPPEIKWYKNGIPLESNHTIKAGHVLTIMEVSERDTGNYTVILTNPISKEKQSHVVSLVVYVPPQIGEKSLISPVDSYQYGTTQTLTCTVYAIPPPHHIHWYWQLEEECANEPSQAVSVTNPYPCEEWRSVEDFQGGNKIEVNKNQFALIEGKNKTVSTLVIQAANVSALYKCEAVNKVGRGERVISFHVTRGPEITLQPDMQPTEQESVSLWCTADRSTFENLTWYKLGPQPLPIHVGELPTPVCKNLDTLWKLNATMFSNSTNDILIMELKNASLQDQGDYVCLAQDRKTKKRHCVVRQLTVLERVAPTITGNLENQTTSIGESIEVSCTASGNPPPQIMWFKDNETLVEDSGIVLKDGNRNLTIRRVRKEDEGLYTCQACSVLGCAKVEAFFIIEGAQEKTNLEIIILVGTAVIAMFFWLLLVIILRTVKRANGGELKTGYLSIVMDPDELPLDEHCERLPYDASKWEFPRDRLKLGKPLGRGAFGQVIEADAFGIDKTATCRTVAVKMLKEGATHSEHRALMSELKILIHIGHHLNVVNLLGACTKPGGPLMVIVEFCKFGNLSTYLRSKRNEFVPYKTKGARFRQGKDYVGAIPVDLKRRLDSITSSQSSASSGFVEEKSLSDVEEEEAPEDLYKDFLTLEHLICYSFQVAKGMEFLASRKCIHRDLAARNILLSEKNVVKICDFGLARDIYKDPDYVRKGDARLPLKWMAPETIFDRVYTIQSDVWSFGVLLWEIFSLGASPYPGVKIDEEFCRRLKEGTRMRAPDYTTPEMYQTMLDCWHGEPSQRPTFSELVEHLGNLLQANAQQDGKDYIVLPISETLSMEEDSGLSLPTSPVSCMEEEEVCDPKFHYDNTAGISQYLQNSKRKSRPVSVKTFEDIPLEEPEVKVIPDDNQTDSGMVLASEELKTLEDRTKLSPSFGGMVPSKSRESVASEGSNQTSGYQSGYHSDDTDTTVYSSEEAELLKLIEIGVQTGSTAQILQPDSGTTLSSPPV

O=C(O)c1cc(NC(=O)c2cc(O)c(C(=O)Nc3ccc(O)c(C(=O)O)c3)cc2O)ccc1O [Ic-007a, 5-(4-(3-carboxy-4-hydroxyphenylaminocarbonyl)-2,5-dihydroxybenzamido)-2-hydroxy benzoic acid]
Retina vasculature coverage ([1]; 28 days, retinal flat mounts, FITC-dextran): significantly decreased
Blood urea nitrogen levels ([1]; day 28, vs induced vehicle controls): significantly lower than induced vehicle controls
Blood BUN [1, 2]: 21.7 ± 3.0
Disease Score (kidney, H&E) [1, 2]: 7 ± 1
Eye area (retinal flatmount area covered by vasculature) [1, 2]: 9.1 ± 1.1
Trichrome staining (Kidney fibrosis) [1, 2]: 2.23 ± 0.61
Blood CRP [1, 3]: 5707 ± 892
Blood IL-6 [1, 3]: 109.27 ± 19.03
Blood TGF-beta [1, 3]: 16.66 ± 2.11
Blood TNF-alpha [1, 3]: 326.8 ± 63^
IC50 (VEGFR-2): 90 nM
IC50 (VEGF-A): 3200 nM
